Calls of active or inactive are those of the source. The rule behind the calls is not given here.
Tested on: CCRIS mutagenicity, Ames/micronucleus/aberration tests
Experiment: CCRIS mutagenicity studies
Settings: Test System: AMES SALMONELLA TYPHIMURIUM
[1] = Strain/Indicator: TA98, Metabolic Activation: NONE, Method: PREINCUBATION
[2] = Strain/Indicator: TA100, Metabolic Activation: NONE, Method: PREINCUBATION
[3] = Strain/Indicator: TA1535, Metabolic Activation: NONE, Method: PREINCUBATION
[4] = Strain/Indicator: TA100, Metabolic Activation: HAMSTER, LIVER, S-9, AROCLOR 1254 (10 OR 30%), Method: PREINCUBATION

Q: O=C(Cn1c(=O)sc2ccccc21)OCc1ccccc1 was tested. Which mutagenic call (Strain/Indicator: TA97, Metabolic Activation: NONE, Method: STANDARD PLATE) did it give?
A: inactive; negative

Q: What about the mutagenic call (Strain/Indicator: TA97, Metabolic Activation: RAT, LIVER, S-9, DELOR 103, Method: STANDARD PLATE) of the same molecule?
A: inactive; negative

Q: And the mutagenic call (Strain/Indicator: TA98, Metabolic Activation: NONE, Method: STANDARD PLATE)?
A: inactive; negative

Q: What about the mutagenic call (Strain/Indicator: TA98, Metabolic Activation: RAT, LIVER, S-9, DELOR 103, Method: STANDARD PLATE) of the same molecule?
A: inactive; negative

Q: And the mutagenic call (Strain/Indicator: TA100, Metabolic Activation: NONE, Method: STANDARD PLATE)?
A: inactive; negative

Q: What about the mutagenic call (Strain/Indicator: TA100, Metabolic Activation: RAT, LIVER, S-9, DELOR 103, Method: STANDARD PLATE) of the same molecule?
A: inactive; negative

Q: What about the mutagenic call (Strain/Indicator: TA1535, Metabolic Activation: NONE, Method: STANDARD PLATE) of the same molecule?
A: inactive; negative

Q: What about the mutagenic call (Strain/Indicator: TA1535, Metabolic Activation: RAT, LIVER, S-9, DELOR 103, Method: STANDARD PLATE) of the same molecule?
A: inactive; negative

Q: What about the mutagenic call (Strain/Indicator: TA1538, Metabolic Activation: NONE, Method: STANDARD PLATE) of the same molecule?
A: inactive; negative

Q: What about the mutagenic call (Strain/Indicator: TA1538, Metabolic Activation: RAT, LIVER, S-9, DELOR 103, Method: STANDARD PLATE) of the same molecule?
A: inactive; negative

Q: How did the mutagenic call (Strain/Indicator: TA98, Metabolic Activation: HAMSTER, LIVER, S-9, AROCLOR 1254 (10%), Method: PREINCUBATION) turn out when Cc1ccc(C(C)(C)C)cc1 was run?
A: inactive; negative

Q: And the mutagenic call [1]?
A: inactive; negative

Q: And the mutagenic call (Strain/Indicator: TA98, Metabolic Activation: RAT, LIVER, S-9, AROCLOR 1254 (10%), Method: PREINCUBATION)?
A: inactive; negative

Q: And the mutagenic call (Strain/Indicator: TA100, Metabolic Activation: HAMSTER, LIVER, S-9, AROCLOR 1254 (10%), Method: PREINCUBATION)?
A: inactive; negative

Q: What about the mutagenic call [2] of the same molecule?
A: inactive; negative

Q: What about the mutagenic call (Strain/Indicator: TA100, Metabolic Activation: RAT, LIVER, S-9, AROCLOR 1254 (10%), Method: PREINCUBATION) of the same molecule?
A: inactive; negative

Q: And the mutagenic call (Strain/Indicator: TA1535, Metabolic Activation: HAMSTER, LIVER, S-9, AROCLOR 1254 (10%), Method: PREINCUBATION)?
A: inactive; negative

Q: What about the mutagenic call [3] of the same molecule?
A: inactive; negative

Q: And the mutagenic call (Strain/Indicator: TA1535, Metabolic Activation: RAT, LIVER, S-9, AROCLOR 1254 (10%), Method: PREINCUBATION)?
A: inactive; negative

Q: And the mutagenic call (Strain/Indicator: TA1537, Metabolic Activation: HAMSTER, LIVER, S-9, AROCLOR 1254 (10%), Method: PREINCUBATION)?
A: inactive; negative

Q: What about the mutagenic call (Strain/Indicator: TA1537, Metabolic Activation: NONE, Method: PREINCUBATION) of the same molecule?
A: inactive; negative

Q: What about the mutagenic call (Strain/Indicator: TA1537, Metabolic Activation: RAT, LIVER, S-9, AROCLOR 1254 (10%), Method: PREINCUBATION) of the same molecule?
A: inactive; negative

Q: Which mutagenic call [1] does the source give for O=Nn1cnc(CC(=O)NO)c1 here?
A: active; positive

Q: And the mutagenic call [2]?
A: active; positive

Q: Which results are given for Oc1ccc(Cl)cc1Sc1cc(Cl)ccc1O?
A: mutagenic call (Strain/Indicator: TA97, Metabolic Activation: HAMSTER, LIVER, S-9, AROCLOR 1254 (10 OR 30%), Method: PREINCUBATION): inactive; negative; mutagenic call (Strain/Indicator: TA97, Metabolic Activation: NONE, Method: PREINCUBATION): inactive; negative; mutagenic call (Strain/Indicator: TA97, Metabolic Activation: RAT, LIVER, S-9, AROCLOR 1254 (10 OR 30%), Method: PREINCUBATION): inactive; negative; mutagenic call (Strain/Indicator: TA98, Metabolic Activation: HAMSTER, LIVER, S-9, AROCLOR 1254 (10 OR 30%), Method: PREINCUBATION): inactive; negative; mutagenic call [1]: inactive; negative; mutagenic call (Strain/Indicator: TA98, Metabolic Activation: RAT, LIVER, S-9, AROCLOR 1254 (10 OR 30%), Method: PREINCUBATION): inactive; negative; mutagenic call [4]: inactive; negative; mutagenic call [2]: inactive; negative; mutagenic call (Strain/Indicator: TA100, Metabolic Activation: RAT, LIVER, S-9, AROCLOR 1254 (10 OR 30%), Method: PREINCUBATION): inactive; negative; mutagenic call (Strain/Indicator: TA1535, Metabolic Activation: HAMSTER, LIVER, S-9, AROCLOR 1254 (10 OR 30%), Method: PREINCUBATION): inactive; negative; mutagenic call [3]: inactive; negative; mutagenic call (Strain/Indicator: TA1535, Metabolic Activation: RAT, LIVER, S-9, AROCLOR 1254 (10 OR 30%), Method: PREINCUBATION): inactive; negative

Q: How did the mutagenic call (Strain/Indicator: TA98, Metabolic Activation: RAT, LIVER, S-9, PHENOBARBITAL, Method: STANDARD PLATE) turn out when COc1cc(O)c2c(=O)c3c(OC)cc4c(c3oc2c1OC)[C@@H]1C=CO[C@@H]1O4 was run?
A: inactive; negative

Q: And the mutagenic call (Strain/Indicator: TA100, Metabolic Activation: RAT, LIVER, S-9, PHENOBARBITAL, Method: STANDARD PLATE)?
A: active; positive

Q: With CCCCCCCC(=O)Cl as the molecule, how does the mutagenic call (Strain/Indicator: TA98, Metabolic Activation: HAMSTER, LIVER, S-9, AROCLOR 1254 (30%), Method: PREINCUBATION) read?
A: inactive; negative

Q: And the mutagenic call [1]?
A: inactive; negative

Q: What about the mutagenic call (Strain/Indicator: TA98, Metabolic Activation: RAT, LIVER, S-9, AROCLOR 1254 (30%), Method: PREINCUBATION) of the same molecule?
A: inactive; negative

Q: What about the mutagenic call (Strain/Indicator: TA100, Metabolic Activation: HAMSTER, LIVER, S-9, AROCLOR 1254 (5%), Method: PREINCUBATION) of the same molecule?
A: active; positive

Q: And the mutagenic call [4]?
A: inactive; negative

Q: What about the mutagenic call (Strain/Indicator: TA100, Metabolic Activation: HAMSTER, LIVER, S-9, AROCLOR 1254 (30%), Method: PREINCUBATION) of the same molecule?
A: active; positive

Q: And the mutagenic call [2]?
A: inactive; negative

Q: What about the mutagenic call (Strain/Indicator: TA100, Metabolic Activation: RAT, LIVER, S-9, AROCLOR 1254 (5 OR 10%), Method: PREINCUBATION) of the same molecule?
A: inactive; negative

Q: What about the mutagenic call (Strain/Indicator: TA100, Metabolic Activation: RAT, LIVER, S-9, AROCLOR 1254 (30%), Method: PREINCUBATION) of the same molecule?
A: inactive; negative

Q: What about the mutagenic call (Strain/Indicator: TA1535, Metabolic Activation: HAMSTER, LIVER, S-9, AROCLOR 1254 (5, 10 OR 30%), Method: PREINCUBATION) of the same molecule?
A: inactive; negative

Q: What about the mutagenic call (Strain/Indicator: TA1535, Metabolic Activation: RAT, LIVER, S-9, AROCLOR 1254 (5, 10 OR 30%), Method: PREINCUBATION) of the same molecule?
A: inactive; negative
